Where two headings read alike, the source gives them in different places.

What all share (format): cell-based
The test system of one assay is HTT. As to the kind of experiment: Gene panel canonical junction RT-qPCR assay: HTT. The settings on record: read-out: HTT (IC50, decrease in CJ mRNA levels). How it is done: (§1) Compounds described herein were used to modulate RNA transcript abundance in cells. The expression of a target mRNA was measured by detecting the formation of an exon-exon junction in the canonical transcript (CJ). A compound mediated exon-inclusion event was detected by observing an increase in formation of a new junction with an alternative exon (AJ). Real-time qPCR assays were used to detect these splicing switches and interrogate the potency of various compounds towards different target genes. A high-throughput real time quantitative PCR (RT-qPCR) assay was developed to measure these two isoforms of the mRNA (CJ and AJ) for an exemplary gene, HTT, together with a control housekeeping gene, GAPDH or GUSB or PPIA, used for normalization. Briefly, the A673 or K562 cell line was treated with various compounds described herein (e.g., compounds of Formula (I)). After treatment, the levels of the HTT mRNA targets were determined from each sample of cell lysate by cDNA synthesis followed by qPCR.
(§2) The A673 cell line was cultured in DMEM with 10% FBS. Cells were diluted with full growth media and plated in a 96-well plate (15,000 cells in 100 ul media per well). The plate was incubated at 37° C. with 5% CO2 for 24 hours to allow cells to adhere. An 11-point 3-fold serial dilution of the compounds was made in DMSO then diluted in media in an intermediate plate. Compounds were transferred from the intermediate plate to the cell plate with the top dose at a final concentration of 10 uM in the well. Final DMSO concentration was kept at or below 0.25%. The cell plate was returned to the incubator at 37° C. with 5% CO2 for an additional 24 hours.
(§3) The K562 cell line was cultured in IMDM with 10% FBS. For K562, cells were diluted with full growth media and plated in either a 96-well plate (50,000 cells in 50 uL media per well) or a 384-well plate (8,000-40,000 cells in 45 uL media per well). An 11-point 3-fold serial dilution of the compounds were made in DMSO then diluted in media in an intermediate plate. Compound was transferred from the intermediate plate to the cell plate with the top dose at a final concentration of 10 uM in the well. Final DMSO concentration was kept at or below 0.25%. Final volume was 100 uL for 96-well plate and 50 uL for 384-well plate. The cell plate was then placed in an incubator at 37° C. with 5% CO2 for 24 hours.
(§4) The cells were then gently washed with 50 uL-100 uL cold PBS before proceeding to addition of lysis buffer. 30 uL-50 uL of room temperature lysis buffer with DNAse I (and optionally RNAsin) was added to each well. Cells were shaken/mixed thoroughly at room temperature for 5-10 minutes for lysis to take place and then 3 uL-5 uL of room temperature stop solution was added and wells were shaken/mixed again. After 2-5 minutes, the cell lysate plate was transferred to ice for RT-qPCR reaction setup. The lysates could also be frozen at −80° C. for later use.
(§5) In some cases, a direct lysis buffer was used. An appropriate volume of 3×lysis buffer (10 mM Tris, 150 mM NaCl, 1.5%-2.5% Igepal and 0.1-1 U/uL RNAsin, pH 7.4) was directly added to either K562 or A673 cells in media and mixed by pipetting 3 times. The plates were then incubated at room temperature with shaking/rocking for 20-50 minutes to allow for lysis to take place. After this time, the cell lysate plate was transferred to ice to set up for the RT-qPCR reactions. The lysates could also be frozen at −80° C. for later use.
(§6) To set up 10 uL RT-qPCR reactions, cell lysates were transferred to 384-well qPCR plates containing the master mix according to the table below. The plates were sealed, gently vortexed, and spun down before the run. The volumes were adjusted accordingly in some instances where the reaction was carried in 20 uL. The table below summarizes the components of the RT-qPCR reactions:
(§7) The RT-qPCR reaction was performed using a QuantStudio (ThermoFisher) under the following fast cycling conditions. […]

The next assay has as its system Target C. The assay is described as follows: Gene panel canonical junction RT-qPCR assay: Target C. The conditions noted are these: read-out: Target C (IC50, decrease in CJ mRNA levels). As to the method:
as §1, §2, §3, §4, §5, §6, §7
A general note: In qPCR the cycle at which signal appears reflects the starting amount.

The test system of another assay is HTT mRNA. As to the kind of experiment: RT-qPCR splicing assay monitoring HTT canonical (CJ) and alternative (AJ) junction mRNA in A673 or K562 cells. The conditions noted are these: 24 hours compound treatment, top dose 10 uM. How it is done: as §1
• Cells-to-CT 1-step kit: ThermoFisher A25602, Cells-to-CT lysis reagent: ThermoFisher 4391851C, TaqMan™ Fast Virus 1-Step Master Mix: ThermoFisher 4444436 • GAPDH: VIC-PL, ThermoFisher 4326317E (Assay: Hs99999905_m1)—used for K562/suspension cell lines • GUSB: VIC-PL, ThermoFisher 4326320E (Assay: Hs99999908_m1)—used for K562/suspension cell lines • PPIA: VIC-PL, ThermoFisher 4326316E (Assay: Hs99999904_m1)—used for A673/adherent cell lines
as §2, §3, §4
In some cases, a direct lysis buffer was used. An appropriate volume of 3×lysis buffer (10 mM Tris, 150 mM NaCl, 1.5%-2.5% Igepal and 0.1-1 U/uL RNAsin, pH 7.4) was directly added to either K562 or A673 cells in media and mixed by pipetting 3 times. The plates were then incubated at room temperature with shaking/rocking for 20-50 minutes to allow for lysis to take place. After this time, the cell lysate plate was transferred to ice to set up for the RT-qPCR reactions. The lysates could also be frozen at −80° C. for later use. […]

Another assay has as its system SMN2. The assay is described as follows: Gene panel canonical junction RT-qPCR assay: SMN2. The conditions noted are these: read-out: SMN2 (IC50, decrease in CJ mRNA levels). How it is done: as §1, §2, §3, §4, §5, §6, §7
Where [1] appears, read: decrease in CJ mRNA, read-out: HTT CJ AC50.
[2] abbreviates: increase in AJ mRNA, read-out: HTT AJ AC50.

Usually IC50 stands for the concentration at which inhibition is half-maximal. As usually defined, the AC50 is the concentration at which the activity in the assay is half-maximal. For `COc1nc(-c2ccc(N(C)[C@@H]3C[C@H]4CC[C@@H](C3)N4)nn2)ccc1-n1cccn1` [Compound 134, (1R,3S,5S)—N-[6-[6-methoxy-5-(pyrazol-1-yl)pyridin-2-yl]pyridazin-3-yl]-N-methyl-8-azabicyclo[3.2.1]octan-3-amine], the results for the IC50 with HTT, in the assay with Target C and in the assay on SMN2 were 0.1 to 1 µM, above 10 µM and 0.1 to 1 µM, respectively. The AC50 in the assay with HTT mRNA (setting [1]) and with HTT mRNA (setting [2]) was 0.1 to 1 µM each time.

`Cc1nc(-c2ccc(N(C)[C@@H]3C[C@H]4CC[C@@H](C3)N4)nn2)ccc1-c1cn[nH]c1` [Compound 171]: the IC50 with HTT was 1 to 10 µM; in the assay with Target C it was 1 to 10 µM; in the assay on SMN2, 0.1 to 1 µM. Also, the AC50 in the assay on HTT mRNA (setting [1]) and with HTT mRNA (setting [2]) was 1 to 10 µM each time.

For `COc1nc(-c2ccc(N(C)[C@@H]3C[C@H]4CC[C@@H](C3)N4)nn2)ncc1-c1cn[nH]c1` [Compound 207], the IC50 in the assay on HTT, in the assay with Target C and with SMN2 was 1 to 10 µM throughout. Moreover, the AC50 in the assay with HTT mRNA (setting [1]) and in the assay on HTT mRNA (setting [2]) was 1 to 10 µM in each case.

`COc1cc(-c2ccc(N(C)[C@@H]3C[C@H]4CC[C@@H](C3)N4)nn2)ccc1-c1cn[nH]c1` [Compound 208]: the IC50 with HTT was 0.1 to 1 µM; in the assay with Target C, 0.1 to 1 µM; in the assay on SMN2, below 0.1 µM. Moreover, the AC50 in the assay on HTT mRNA (setting [1]) and with HTT mRNA (setting [2]) was 0.1 to 1 µM throughout.

In the case of `CN(c1ccc(-c2ccc(-c3cn[nH]c3)cn2)nn1)[C@@H]1C[C@H]2CC[C@@H](C1)N2` [Compound 217], the IC50 in the assay on HTT is 0.1 to 1 µM; in the assay with Target C, 1 to 10 µM; with SMN2 it was above 10 µM. The AC50 in the assay on HTT mRNA (setting [1]) and with HTT mRNA (setting [2]) was 0.1 to 1 µM in each case.
